According to patent US4550186A, “Binuclear copper (II) carboxylates formed from amine-carboxyboranes” (Duke University, priority 1983, dated 1985):

Molecular target: T1, transfer ribonucleic acid polymerase (Mus musculus, UniProt B2RXC6+P59470)
T1 sequence (B2RXC6 1-1390): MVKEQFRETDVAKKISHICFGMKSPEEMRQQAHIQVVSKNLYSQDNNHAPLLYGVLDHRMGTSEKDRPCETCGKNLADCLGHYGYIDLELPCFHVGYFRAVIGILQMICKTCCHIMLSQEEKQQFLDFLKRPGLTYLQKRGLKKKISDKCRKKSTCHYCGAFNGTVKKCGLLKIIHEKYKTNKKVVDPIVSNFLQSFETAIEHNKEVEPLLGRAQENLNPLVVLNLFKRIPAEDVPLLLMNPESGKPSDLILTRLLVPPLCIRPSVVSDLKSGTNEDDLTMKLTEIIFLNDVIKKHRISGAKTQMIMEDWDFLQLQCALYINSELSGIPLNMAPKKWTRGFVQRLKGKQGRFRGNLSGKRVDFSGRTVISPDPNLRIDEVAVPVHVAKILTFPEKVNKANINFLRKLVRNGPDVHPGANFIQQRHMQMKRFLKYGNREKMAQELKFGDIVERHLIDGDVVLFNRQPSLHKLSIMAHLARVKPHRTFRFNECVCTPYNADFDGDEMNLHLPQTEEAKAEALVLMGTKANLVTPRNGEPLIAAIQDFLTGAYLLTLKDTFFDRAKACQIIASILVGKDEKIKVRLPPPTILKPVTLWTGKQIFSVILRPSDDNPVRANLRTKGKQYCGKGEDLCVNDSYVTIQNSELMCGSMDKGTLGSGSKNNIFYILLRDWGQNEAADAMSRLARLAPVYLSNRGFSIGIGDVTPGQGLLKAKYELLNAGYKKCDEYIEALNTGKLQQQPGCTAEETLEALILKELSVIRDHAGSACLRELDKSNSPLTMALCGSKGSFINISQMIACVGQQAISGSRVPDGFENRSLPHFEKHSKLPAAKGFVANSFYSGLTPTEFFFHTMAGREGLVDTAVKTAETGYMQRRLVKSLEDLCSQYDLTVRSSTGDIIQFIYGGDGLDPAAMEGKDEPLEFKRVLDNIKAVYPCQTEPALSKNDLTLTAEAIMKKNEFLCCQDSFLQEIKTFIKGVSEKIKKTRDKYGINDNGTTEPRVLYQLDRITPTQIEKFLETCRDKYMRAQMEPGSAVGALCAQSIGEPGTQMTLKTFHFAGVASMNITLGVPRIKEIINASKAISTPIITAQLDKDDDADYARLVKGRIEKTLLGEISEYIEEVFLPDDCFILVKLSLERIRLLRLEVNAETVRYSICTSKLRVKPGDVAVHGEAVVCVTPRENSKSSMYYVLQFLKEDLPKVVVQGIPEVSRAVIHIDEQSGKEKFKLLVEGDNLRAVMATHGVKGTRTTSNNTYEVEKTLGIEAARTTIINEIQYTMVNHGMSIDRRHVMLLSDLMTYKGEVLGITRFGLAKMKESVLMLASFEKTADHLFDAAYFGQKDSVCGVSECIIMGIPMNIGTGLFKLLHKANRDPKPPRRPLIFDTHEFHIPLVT
T1 sequence (P59470 1-1133): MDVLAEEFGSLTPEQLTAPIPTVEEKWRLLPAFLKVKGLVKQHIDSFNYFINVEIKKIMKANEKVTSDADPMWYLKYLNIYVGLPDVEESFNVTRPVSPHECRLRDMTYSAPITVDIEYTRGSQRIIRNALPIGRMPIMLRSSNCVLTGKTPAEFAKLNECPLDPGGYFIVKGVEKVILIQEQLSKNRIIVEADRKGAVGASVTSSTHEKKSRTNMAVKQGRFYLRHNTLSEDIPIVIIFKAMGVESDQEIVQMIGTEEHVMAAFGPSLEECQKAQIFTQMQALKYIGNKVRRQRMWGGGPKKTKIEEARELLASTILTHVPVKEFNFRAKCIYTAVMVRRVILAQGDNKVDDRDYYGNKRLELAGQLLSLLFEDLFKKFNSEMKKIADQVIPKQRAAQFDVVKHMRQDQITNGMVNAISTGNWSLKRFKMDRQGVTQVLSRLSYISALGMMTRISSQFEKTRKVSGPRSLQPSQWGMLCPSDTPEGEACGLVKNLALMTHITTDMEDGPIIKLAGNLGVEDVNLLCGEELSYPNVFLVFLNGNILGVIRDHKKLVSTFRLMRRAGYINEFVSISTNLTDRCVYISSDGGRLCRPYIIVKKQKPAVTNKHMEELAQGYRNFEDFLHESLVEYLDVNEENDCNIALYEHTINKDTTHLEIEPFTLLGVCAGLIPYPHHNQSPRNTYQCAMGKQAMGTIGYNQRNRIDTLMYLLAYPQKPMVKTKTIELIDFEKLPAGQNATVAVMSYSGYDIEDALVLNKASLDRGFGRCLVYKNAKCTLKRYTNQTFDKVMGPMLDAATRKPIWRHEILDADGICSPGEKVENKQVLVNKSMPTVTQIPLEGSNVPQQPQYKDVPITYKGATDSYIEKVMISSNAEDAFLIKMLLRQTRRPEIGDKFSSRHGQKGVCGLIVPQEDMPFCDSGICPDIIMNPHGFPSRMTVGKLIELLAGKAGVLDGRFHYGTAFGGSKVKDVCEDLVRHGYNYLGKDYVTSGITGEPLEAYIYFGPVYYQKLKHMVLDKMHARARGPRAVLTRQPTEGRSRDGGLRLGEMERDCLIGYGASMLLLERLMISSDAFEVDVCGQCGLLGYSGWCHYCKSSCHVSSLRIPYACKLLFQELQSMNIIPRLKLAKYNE
Test: In vivo transfer ribonucleic acid polymerase activity
Method: CF1 male mice (~30 g) were implanted with 2×10^6 Ehrlich ascites tumor cells, intraperitoneally on Day 0. Compound I was suspended by homogenation in 0.05% polysorbate.80-water and administered intraperitoneally at 10 and 20 mg/kg for 9 days to determine its effectiveness for inhibition of tumor growth. Mice were sacrificed on Day 10, and the ascites fluid was collected from the peritoneal cavity. The volume and ascrit (packed cell volume) were determined for each animal and the percent inhibition of tumor growth was calculated. For the metabolic studies, mice were treated on Days 8 and 9 with 10 mg/kg of Compound I, intraperitoneally. The animal was sacrificed on Day 10 and the ascites fluid harvested. The in vitro metabolic studies were performed at […] final concentration of Compound I.
In vitro and in vivo nuclear deoxyribonucleic acid polymerase activity was determined on isolated Ehrlich ascites cell nuclei. The incubation was that described by Sawada et al [Can. Res., 34, 3341 (1974)] except that [methyl-^3 H] deoxythymidine triphosphate (82.4 Ci/mmol) was used. The acid insoluble nucleic acid was collected on GF/F filters and counted. Nuclear ribonucleic acid polymerase activities were determined on enzymes isolated from nuclei. […] The acid insoluble ribonucleic acid was collected on nitrocellulose filters and counted.

**Q.** What does the source list for “{Cu[(CH3)3 N.BH2 CO2 ]2.(CH3)3 N.BH2 COOH} [Compound I]”?
**A.** transfer ribonucleic acid polymerase activity suppressed: 37%; Transfer ribonucleic acid polymerase activity (10 mg/kg/day I.P. on Days 8 and 9): 63 ± 7 % Control
